According to patent publication US20260248722A1, “METHOD FOR CARTILAGE REGENERATION AND REGROWTH FOLLOWING INJURY” (ELUCIDERM INC., priority 2021, published 2026):

How the values were obtained:
[1] = system: 2 mm biopsy punch wound in the center of the cartilaginous region of each ear; assay: Cartilage regrowth in mouse ears after 2 mm biopsy punch wound (Example 2); format: in vivo, C57Bl/6J mice; conditions: XAV939 in DMSO every day for 30 days
Text: C57Bl/6J mice were purchased from The Jackson Laboratory (Bar Harbor, ME, USA) and maintained by PPY. C57Bl/6J mice (at least 3 months of age) were anesthetized with 3-5% isoflurane in O2 administered using Tabletop Laboratory Animal Anesthesia System (VetEquip Inc., Pleasanton, CA, USA). A 2 mm biopsy punch wound was made in the center of the cartilaginous region of each ear using a disposable biopsy punch (Acuderm Inc., Fort Lauderdale, FL, USA) as described previously (Rai, M. F. et al, 2021, Arthritis Rheum., 64:2300-2310). […] In order to quantify closure of the wounds, ears were excised following mouse sacrifice, fixed and placed on microscope slides for examination by way of the digital camera being affixed to a Micromaster Inverted microscope (Thermo Fisher Scientific, Waltham, MA, USA). […] Sections of the tissue were then stained with Trichome blues, imaged and analyzed by way of an Olympus DP71 microscope camera (Olympus America, Center Valley, PA, USA). […] For quantification of wound closure, ears were excised after the mice were sacrificed, placed on microscope slides (Denville Scientific, South Plainfield, NJ, USA) and imaged using Nikon Coolpix 8700 affixed to Micromaster Inverted microscope (Thermo Fisher Scientific, Waltham, MA, USA). […]

CRE, F-κB, or TGF-β = conditions: cited from earlier work
[2] = cited from earlier work
ear punch wound = conditions: topical application, dissolved in DMSO; cited from earlier work
[3] = system: 2 mm biopsy punch wound in the center of the cartilaginous region; conditions: XAV939 dissolved in DMSO; cited from earlier work

Structure (SMILES): Oc1nc(-c2ccc(C(F)(F)F)cc2)nc2c1CSCC2 [XAV939, 3,5,7,8-Tetrahydro-2-[4-(trifluoromethyl)phenyl]-4H-thiopyrano[4,3-d]pyrimidin-4-one]
- nature and character of the cartilage regrowth in the wounds, compared to DMSO control [1]: improved
- effect on CRE, F-κB, or TGF-β (CRE, F-κB, or TGF-β): does not affect
- aqueous solubility [2]: < 1 µg/mL
- fibrosis (scarring) (ear punch wound): reduced fibrosis
- rate of wound closure (ear punch wound): significantly increased
- cartilage regeneration and healing following acute injury [3]: increased cartilage regeneration and healing
